In PMC3626250, “Effects of Borneol on Pharmacokinetics and Tissue Distribution of Notoginsenoside R1 and Ginsenosides Rg1 and Re in Panax notoginseng in Rabbits” (Journal of Analytical Methods in Chemistry, 2013):

Columns and labels:
[1] = test system: Caco-2 cells; experiment: MTT cytotoxicity assay toward Caco-2 cells; format: cell-based; details: chosen for transport study
Procedure: The Caco-2 cells were cultured in Dulbecco's modified Eagle's medium (DMEM) supplemented with 20% foetal bovine serum, 1% nonessential amino acids and penicillin-streptomycin, at 37°C in an atmosphere with a relative humidity of 95% and a CO2 flow of 5%. Medium was replaced every 2-3 days. When the cell monolayer reached 80% confluence, the cells were detached with a solution of 0.02% EDTA and 0.25% trypsin. The vinblastine-selected Caco-2 cells were cultivated in the presence of 10 nM vinblastine to induce P-glycoprotein (P-gp) expression. The culture medium was changed to a fresh medium without vinblastine 24 h before experiments, and the cells were used between passages 25 and 46. Prior to the transport study, cytotoxicity of NGR1, GRg1, GRe, and Borneol toward Caco-2 cells was determined using MTT assays. Noncytotoxic concentrations of 500 μM NGR1, GRg1, GRe, and 200 μM Borneol (dissolved in DMSO) were chosen for transport study.

[2] = test system: vinblastine-selected Caco-2 cells; experiment: Transport studies across Caco-2 monolayers (P app, efflux ratio); format: in vitro ADME; details: for increase of P app (apical-to-basolateral) by Borneol / increase of P app (basolateral-to-apical) by Borneol: 200 μM Borneol, Caco-2; for P app values: Caco-2 monolayers, without Borneol; for substrate of P-gp: concluded from efflux ratio in vinblastine-selected Caco-2 cells
Procedure: Medium was replaced every 2-3 days. […] The vinblastine-selected Caco-2 cells were cultivated in the presence of 10 nM vinblastine to induce P-glycoprotein (P-gp) expression. […] Prior to the transport study, cytotoxicity of NGR1, GRg1, GRe, and Borneol toward Caco-2 cells was determined using MTT assays.
In transport studies, vinblastine-selected Caco-2 cells were seeded on polycarbonate filter of transwells for 18–21 days before starting transport study, and the monolayers with the transepithelial electrical resistance (TEER) values greater than 300 Ωcm^2 were used. Caco-2 monolayers were rinsed twice with Hanks' balanced salt solution (HBSS) and preincubated in HBSS at 37°C for 30 min before starting experiments. To start the experiments, 500 μM of NGR1, GRg1, and GRe in final concentrations were added to the donor side with or without 200 μM Borneol and then incubated at 37°C. […] After each sampling, 0.1 mL of HBSS was added to the receiver chamber to maintain a constant volume. All the experiments were performed five times in duplicate. The collected samples were stored at −20°C until HPLC analysis. During the above transport studies, the TEER values were also monitored before and at the end of each experiment. Apparent permeability coefficients (P app) were then calculated according to the following equation: (1) Papp=(dC/dt×V)/(A×C0), where dC/dt is the rate of the test compound appearing in the receiver chamber, V is the volume of the solution in the receiver chamber, A is the cell monolayer surface area, and C 0 is the initial concentration of the test compound added in the donor chamber.
The efflux ratio (Er) was calculated using the following equation: (2) Er=Papp(basolateral-apical)/Papp(apical-basolateral).

[3] = Caco-2 Model, 500 μM compound, with or without 200 μM Borneol (see label)

increase of P app (apical-to-basolateral) by Borneol [2] [fold]	increase of P app (basolateral-to-apical) by Borneol [2] [fold]	P app values [2]	substrate of P-gp [2]	P app (apical to basolateral) [2, 3]	P app (basolateral to apical) [2, 3]	E r ([2]; efflux ratio P app(basolateral-apical)/P app(apical-basolateral), with or without 200 μM Borneol (see label))	Compound	Noncytotoxic concentration [1] [µM]
2.3	2.4	less than 10^−6 cm/s	seemed not to be substrates of P-gp				CC(C)=CCC[C@](C)(O[C@@H]1O[C@H](CO)[C@@H](O)[C@H](O)[C@H]1O)[C@H]1CC[C@]2(C)[C@@H]1[C@H](O)C[C@@H]1[C@@]3(C)CC[C@H](O)C(C)(C)[C@@H]3[C@@H](O[C@@H]3O[C@H](CO)[C@@H](O)[C@H](O)[C@H]3O[C@@H]3O[C@@H](C)[C@H](O)[C@@H](O)[C@H]3O)C[C@]12C [GRe, ginsenoside Re]	500
2.6	2.6	less than 10^−6 cm/s	seemed not to be substrates of P-gp				CC(C)=CCC[C@](C)(O[C@@H]1O[C@H](CO)[C@@H](O)[C@H](O)[C@H]1O)[C@H]1CC[C@]2(C)[C@@H]1[C@H](O)C[C@@H]1[C@@]3(C)CC[C@H](O)C(C)(C)[C@@H]3[C@@H](O[C@@H]3O[C@H](CO)[C@@H](O)[C@H](O)[C@H]3O)C[C@]12C [GRg1, ginsenoside Rg1]	500
2.9	2.9	less than 10^−6 cm/s	seemed not to be substrates of P-gp	0.64 ± 0.08 × 10^−7 cm/s	0.68 ± 0.12 × 10^−7 cm/s	1.06	CC(C)=CCC[C@](C)(O[C@@H]1O[C@H](CO)[C@@H](O)[C@H](O)[C@H]1O)[C@H]1CC[C@]2(C)[C@@H]1[C@H](O)C[C@@H]1[C@@]3(C)CC[C@H](O)C(C)(C)[C@@H]3[C@@H](O[C@@H]3O[C@H](CO)[C@@H](O)[C@H](O)[C@H]3O[C@@H]3OC[C@@H](O)[C@H](O)[C@H]3O)C[C@]12C [NGR1, notoginsenoside R1]	500
